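Tested at 5 concentrations; 48 h exposure; 96-well plates; endpoints linearly interpolated, else capped at highest concentration. GI50 = concentration required for 50% inhibition of growth.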 Activity calls are given as the source filed them. No stated cut-off is given here; in the data, active = GI50 up to about 1.1 µM and inactive = higher.
Columns and labels:
Test in all cases: NCI-60 cell line screen, 48 h
IGROV-1 = tested on: IGROV-1
COLO 205 = tested on: COLO 205
SW-620 = tested on: SW-620
A498 = tested on: A498
PC-3 = tested on: PC-3
TK-10 = tested on: TK-10
NCI-H460 = tested on: NCI-H460
OVCAR-3 = tested on: OVCAR-3
NCI-H226 = tested on: NCI-H226
SK-MEL-5 = tested on: SK-MEL-5
SF-539 = tested on: SF-539
MOLT-4 = tested on: MOLT-4
HT-29 = tested on: HT-29
BT-549 = tested on: BT-549
A549 = tested on: A549
CCRF-CEM = tested on: CCRF-CEM
M14 = tested on: M14
SN12C = tested on: SN12C
HOP-62 = tested on: HOP-62
SF-268 = tested on: SF-268

Measured: GI50

CC1CCC2(CC1)N=C1CCC(C)CC1C1(CCC(C)CC1)N2 (stereo not given)
inactive: IGROV-1 > 100 µM | COLO 205 > 100 µM | SW-620 79.3 µM | A498 > 100 µM | PC-3 41.2 µM | TK-10 > 100 µM | NCI-H460 > 100 µM | OVCAR-3 > 100 µM | NCI-H226 > 100 µM | SK-MEL-5 29.7 µM | SF-539 > 100 µM | MOLT-4 25.9 µM | HT-29 86.7 µM | BT-549 > 100 µM | A549 > 100 µM | CCRF-CEM 24.3 µM | M14 > 100 µM

NN/C(=N\c1ccc(Cl)cc1)NS(=O)(=O)c1ccc(S(=O)(=O)c2ccccc2)s1
inactive: IGROV-1 19 µM | COLO 205 17 µM | SW-620 38.6 µM | A498 49.1 µM | PC-3 25.5 µM | TK-10 26.7 µM | NCI-H460 17.2 µM | OVCAR-3 20.6 µM | SN12C 22.6 µM | NCI-H226 40.6 µM | HOP-62 41.2 µM | SK-MEL-5 19.2 µM | SF-539 39.4 µM | MOLT-4 9.16 µM | HT-29 18.6 µM | BT-549 26.4 µM | A549 20.1 µM | M14 15.8 µM

Cc1cc2c(c(/C=N/c3ccccc3O)c1)OC1(C=C2)Oc2ccccc2C(=O)N1C (stereo not given)
inactive: IGROV-1 21.5 µM | COLO 205 22.9 µM | SW-620 22.3 µM | A498 18.6 µM | PC-3 17.4 µM | TK-10 16.8 µM | NCI-H460 16.7 µM | OVCAR-3 12.8 µM | SN12C 20.9 µM | NCI-H226 15.4 µM | HOP-62 18.8 µM | SK-MEL-5 15.2 µM | SF-268 14.4 µM | MOLT-4 13.5 µM | HT-29 16.6 µM | BT-549 18.7 µM | A549 21.7 µM | CCRF-CEM 17.1 µM | M14 15.5 µM

CCOc1ccccc1NC(=O)C(=O)C(/C(=N/N)C(=O)OC)c1nc2ccc([N+](=O)[O-])cc2nc1O (stereo not given)
inactive: IGROV-1 28.5 µM | SW-620 > 100 µM | A498 > 100 µM | PC-3 > 100 µM | TK-10 > 100 µM | NCI-H460 > 100 µM | OVCAR-3 > 100 µM | SN12C > 100 µM | NCI-H226 > 100 µM | HOP-62 > 100 µM | SK-MEL-5 > 100 µM | SF-268 > 100 µM | SF-539 > 100 µM | MOLT-4 59.8 µM | HT-29 > 100 µM | BT-549 > 100 µM | A549 > 100 µM | CCRF-CEM > 100 µM | M14 > 100 µM

NC(C(=O)OC(=O)c1ccccc1)C(=O)OC(=O)c1ccccc1
inactive: COLO 205 > 100 µM | SW-620 > 100 µM | A498 > 100 µM | PC-3 > 100 µM | TK-10 > 100 µM | NCI-H460 > 100 µM | OVCAR-3 > 100 µM | SN12C > 100 µM | NCI-H226 > 100 µM | HOP-62 > 100 µM | SK-MEL-5 > 100 µM | SF-268 > 100 µM | SF-539 > 100 µM | MOLT-4 > 100 µM | HT-29 > 100 µM | BT-549 > 100 µM | A549 > 100 µM | CCRF-CEM > 100 µM | M14 > 100 µM

CCCc1c(O)nc2ccccc2c1O
inactive: IGROV-1 > 100 µM | COLO 205 > 100 µM | SW-620 > 100 µM | A498 > 100 µM | PC-3 > 100 µM | TK-10 > 100 µM | NCI-H460 > 100 µM | OVCAR-3 > 100 µM | SN12C > 100 µM | NCI-H226 > 100 µM | HOP-62 > 100 µM | SK-MEL-5 > 100 µM | SF-539 > 100 µM | MOLT-4 > 100 µM | HT-29 > 100 µM | BT-549 > 100 µM | A549 > 100 µM | CCRF-CEM > 100 µM

CCC(C)[C@H](NC(=O)N[C@H](C)c1ccccc1)C(=O)OC (stereo not given in full)
inactive: IGROV-1 > 100 µM | COLO 205 > 100 µM | SW-620 > 100 µM | A498 > 100 µM | PC-3 > 100 µM | TK-10 > 100 µM | NCI-H460 > 100 µM | OVCAR-3 > 100 µM | SN12C > 100 µM | NCI-H226 > 100 µM | HOP-62 > 100 µM | SK-MEL-5 > 100 µM | SF-539 25.8 µM | MOLT-4 > 100 µM | HT-29 > 100 µM | BT-549 > 100 µM | A549 > 100 µM | CCRF-CEM > 100 µM | M14 > 100 µM

O=C(O)CC(Sc1ccccc1)c1ccccc1 (stereo not given)
inactive: IGROV-1 > 100 µM | COLO 205 > 100 µM | SW-620 > 100 µM | A498 > 100 µM | PC-3 > 100 µM | TK-10 > 100 µM | OVCAR-3 > 100 µM | SN12C > 100 µM | NCI-H226 > 100 µM | HOP-62 > 100 µM | SK-MEL-5 > 100 µM | SF-268 > 100 µM | MOLT-4 > 100 µM | HT-29 > 100 µM | BT-549 > 100 µM | A549 > 100 µM | M14 > 100 µM

O=CC1OC(=O)c2cc(O)c(O)c(O)c2-c2c(cc(O)c(O)c2O)C(=O)OC1C1OC(=O)c2cc(O)c(O)c(O)c2-c2c(O)c(O)c3oc(=O)c4c(c(O)c(O)c5oc(=O)c2c3c54)-c2c(cc(O)c(O)c2O)C(=O)OCC1O (stereo not given)
inactive: IGROV-1 39.4 µM | COLO 205 26 µM | SW-620 19.3 µM | A498 5.94 µM | PC-3 38.2 µM | NCI-H460 20.7 µM | OVCAR-3 39.7 µM | SN12C 16.6 µM | NCI-H226 32.4 µM | HOP-62 44.3 µM | SK-MEL-5 18.2 µM | SF-268 56.9 µM | MOLT-4 26.1 µM | HT-29 13.4 µM | BT-549 > 100 µM | A549 24.9 µM | CCRF-CEM 24.3 µM | M14 24.5 µM

CN(Cc1cnc2nc(N)nc(N)c2n1)c1ccc(C(=O)NCCCS(=O)(=O)O)cc1
inactive: IGROV-1 > 100 µM | COLO 205 > 100 µM | SW-620 > 100 µM | A498 > 100 µM | PC-3 > 100 µM | TK-10 > 100 µM | NCI-H460 > 100 µM | OVCAR-3 > 100 µM | SN12C > 100 µM | NCI-H226 > 100 µM | HOP-62 > 100 µM | SK-MEL-5 > 100 µM | SF-268 > 100 µM | SF-539 > 100 µM | MOLT-4 > 100 µM | HT-29 > 100 µM | BT-549 > 100 µM | A549 > 100 µM | M14 > 100 µM

O=c1c(C(c2ccc(/C=C/c3ccccc3)cc2)c2c(O)oc3ccccc3c2=O)c(O)oc2ccccc12
inactive: IGROV-1 27.3 µM | COLO 205 22.6 µM | SW-620 37.9 µM | A498 30.5 µM | PC-3 40.2 µM | TK-10 92.5 µM | NCI-H460 24.5 µM | OVCAR-3 36 µM | SN12C 21.8 µM | NCI-H226 28.2 µM | HOP-62 27.8 µM | SK-MEL-5 26.5 µM | SF-268 22.4 µM | MOLT-4 24.1 µM | HT-29 20.3 µM | BT-549 26.6 µM | CCRF-CEM 41.4 µM

COc1ccc(-c2c(-c3ccccc3)c(C)c3ccccn23)cc1
inactive: IGROV-1 > 100 µM | COLO 205 80.4 µM | SW-620 58.9 µM | A498 > 100 µM | PC-3 84.3 µM | TK-10 > 100 µM | NCI-H460 59.2 µM | OVCAR-3 > 100 µM | SN12C > 100 µM | NCI-H226 > 100 µM | HOP-62 > 100 µM | SK-MEL-5 77.8 µM | SF-539 > 100 µM | MOLT-4 59.6 µM | HT-29 33.4 µM | BT-549 > 100 µM | A549 87.3 µM | CCRF-CEM 28.2 µM | M14 > 100 µM

CCOC(=O)c1ccc(NCC#CCN2CCCCC2)cc1
inactive: IGROV-1 > 100 µM | COLO 205 41.9 µM | SW-620 > 100 µM | A498 > 100 µM | PC-3 > 100 µM | OVCAR-3 > 100 µM | SN12C > 100 µM | NCI-H226 > 100 µM | HOP-62 > 100 µM | SK-MEL-5 38.5 µM | SF-268 > 100 µM | SF-539 > 100 µM | MOLT-4 > 100 µM | HT-29 > 100 µM | BT-549 > 100 µM | A549 > 100 µM | CCRF-CEM 19.7 µM | M14 59.2 µM

O=C1O[C@H]2[C@H](O)[C@@H](OC(=O)c3cc(O)c(O)c4c3[C@@H]3C1=CC(=O)C(O)(O)C3(O)O4)[C@H](OC(=O)c1cc(O)c(O)c(O)c1)O[C@@H]2CO (stereo not given in full) [FUROSIN]
inactive: IGROV-1 > 100 µM | COLO 205 99.3 µM | SW-620 > 100 µM | A498 > 100 µM | PC-3 > 100 µM | NCI-H460 64.1 µM | OVCAR-3 33.2 µM | SN12C > 100 µM | NCI-H226 > 100 µM | HOP-62 > 100 µM | SK-MEL-5 42.5 µM | SF-268 76.4 µM | MOLT-4 > 100 µM | HT-29 49.1 µM | BT-549 > 100 µM | A549 79.1 µM | CCRF-CEM 17.9 µM | M14 62.2 µM

— ChEMBL document CHEMBL1201862, “PubChem BioAssay data set” (2004)
